The supplement of paper PMC10307832

Legend:
Experiment in all cases: relative viability (nuclei count vs DMSO), 5 days (fraction); higher = more cells survive
RAF265 + Alpelisib = compound: Cn1c(Nc2ccc(C(F)(F)F)cc2)nc2cc(Oc3ccnc(-c4ncc(C(F)(F)F)[nH]4)c3)ccc21 [RAF265] + Cc1nc(NC(=O)N2CCC[C@H]2C(N)=O)sc1-c1ccnc(C(C)(C)C(F)(F)F)c1 [Alpelisib] (partner 2 µM)
Outline: (§1)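 Each reported value is a median over duplicate plates. It expresses relative viability: treated-well nuclei count divided by vehicle-well nuclei count. Lung cancer cell lines in 1536-well plates were dosed by pin tool a day after seeding, alone with one drug or with a fixed anchor-drug dose plus five library-drug doses (not always all listed) in √10 steps, and nuclei were counted after 5 days.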

IPA-3 + Pemetrexed = compound: C1=CC=C2C(=C1)C=CC(=C2SSC3=C(C=CC4=CC=CC=C43)O)O [IPA-3] + Nc1nc2[nH]cc(CCc3ccc(C(=O)N[C@@H](CCC(=O)O)C(=O)O)cc3)c2c(=O)[nH]1 [Pemetrexed] (partner 0.2 µM)
Outline: as §1

RAF265 + Decitabine = compound: Cn1c(Nc2ccc(C(F)(F)F)cc2)nc2cc(Oc3ccnc(-c4ncc(C(F)(F)F)[nH]4)c3)ccc21 [RAF265] + Nc1ncn([C@H]2C[C@H](O)[C@@H](CO)O2)c(=O)n1 [Decitabine] (partner 2 µM)
Outline: as §1

IPA-3 + Trametinib = compound: C1=CC=C2C(=C1)C=CC(=C2SSC3=C(C=CC4=CC=CC=C43)O)O [IPA-3] + CC(=O)Nc1cccc(-n2c(=O)n(C3CC3)c(=O)c3c(Nc4ccc(I)cc4F)n(C)c(=O)c(C)c32)c1 [Trametinib] (partner 0.02 µM)
Outline: as §1

Cell Line	relative viability (RAF265 + Alpelisib; first compound 0.01 µM)	relative viability (RAF265 + Alpelisib; first compound 0.03162 µM)	relative viability (RAF265 + Alpelisib; first compound 0.1 µM)	relative viability (RAF265 + Alpelisib; first compound 0.3162 µM)	relative viability (RAF265 + Alpelisib; first compound 1 µM)	relative viability (IPA-3 + Pemetrexed; first compound 0.2 µM)	relative viability (IPA-3 + Pemetrexed; first compound 0.6325 µM)	relative viability (IPA-3 + Pemetrexed; first compound 2 µM)	relative viability (IPA-3 + Pemetrexed; first compound 6.325 µM)	relative viability (IPA-3 + Pemetrexed; first compound 20 µM)	relative viability (RAF265 + Decitabine; first compound 0.01 µM)	relative viability (RAF265 + Decitabine; first compound 0.03162 µM)	relative viability (RAF265 + Decitabine; first compound 0.1 µM)	relative viability (RAF265 + Decitabine; first compound 0.3162 µM)	relative viability (RAF265 + Decitabine; first compound 1 µM)	relative viability (IPA-3 + Trametinib; first compound 0.2 µM)	relative viability (IPA-3 + Trametinib; first compound 0.6325 µM)	relative viability (IPA-3 + Trametinib; first compound 2 µM)	relative viability (IPA-3 + Trametinib; first compound 6.325 µM)	relative viability (IPA-3 + Trametinib; first compound 20 µM)
NCI-H1944	0.896	0.841	0.646	0.496	0.442	0.687	0.549	0.551	0.721	0.577	0.445	0.496	0.398	0.384	0.317	0.436	0.433	0.401	0.42	0.415
NCI-H2347	1.18	0.97	0.933	0.612	0.488	0.418	0.416	0.76	0.452	0.433	0.676	0.561	0.574	0.526	0.382	0.278	0.276	0.286	0.268	0.281
201T	0.981	1.02	1.07	1.06	0.981	0.311	0.349	0.373	0.295	0.338	0.879	0.839	0.864	0.884	0.858	0.73	0.679	0.714	0.744	0.786
PC-14	0.964	0.907	0.854	0.35	0.579	0.123	0.132	0.135	0.124	0.132	0.24	0.204	0.231	0.163	0.226	1.23	0.654	0.699	0.634	0.918
NCI-H1792	0.668	0.663	0.668	0.518	0.168	1.33	0.486		0.587	0.737	0.462	0.506	0.472	0.324	0.204	0.526	0.504		0.407	0.495
COR-L23	0.785	0.696	0.669	0.389	0.304	0.212	0.194	0.193	0.198	0.204	0.553	0.399	0.436	0.377	0.313	0.743	0.557	0.654	0.579	0.21
HOP-62	0.966		0.948	1.07	0.58	0.333	0.315	0.345	0.313	0.328	0.223	0.215	0.238	0.226	0.186	0.408	0.349	0.414	0.348	0.382
NCI-H1915	1.07	0.945	0.908	0.543	0.296	0.559	0.463	0.497	0.461	0.633	0.262	0.278	0.258	0.236	0.193	0.301	0.271	0.286	0.295	0.318
BEN	1.08	1.05	1.2	1.1	0.814	0.751	0.843	0.852	0.814	0.774	0.835	0.722	0.769	0.737	0.655	1.05	1.04	1.15	1.13	1.16
NCI-H1437	0.956	1.02	0.973	0.944	0.778	0.298	0.294	0.32	0.323	0.334	0.613	0.622	0.571	0.661	0.574	0.712	0.611	0.483	0.468	0.546
EMC-BAC-2	0.735	0.682	0.692	0.52	0.263	0.456	0.461	0.458	0.437	0.464	1.05	0.842	0.958	0.832	0.547	0.938	0.843	0.829	0.914	0.812
NCI-H647	0.923	0.933	0.594	0.477	0.585	0.164	0.162	0.209	0.134	0.089	0.394	0.33	0.357	0.266	0.262	0.69	0.445	0.558	0.284	0.0977
LXF-289	1.06	0.965	1	0.79	0.75	0.949	0.786	0.963	0.996	0.925	0.446	0.399	0.393	0.345	0.26	0.714	0.646	0.668	0.662	0.762
LOU-NH91	0.747	0.667	0.739	0.557	0.495	0.382	0.377	0.465	0.387	0.411	0.828	0.745	0.763	0.685	0.685	0.79	0.757	0.805	0.779	0.852
NCI-H23	0.738	0.601	0.643	0.416	0.222	0.694	0.628	0.764	0.644	0.68	0.335	0.317	0.258	0.266	0.175	0.379	0.379	0.342	0.383	0.443
NCI-H1993	0.648	0.648	0.77	0.761	0.715	0.652	0.602	0.57	0.531	0.516	0.615	0.644	0.561	0.544	0.624	0.491	0.475	0.468	0.558	0.506
